Where two headings read alike, the source gives them in different places. Starred links: 1 amine or outer side, 2 acyl side, 3 side chain; linkers in the order of their positions; H or OH if unused. Non-standard residues stand in square brackets, D forms with d. Groups on a side chain read outwards from the residue. No end group written: not given here. *: point of attachment. C20 diacid = O=C(O)CCCCCCCCCCCCCCCCCCC(=O)*; C18 diacid = O=C(O)CCCCCCCCCCCCCCCCC(=O)*; αMePhe(2-F) = C[C@](N)(Cc1ccccc1F)C(=O)O; γGlu = O=C(O)[C@H](CCC(=O)[*:2])N[*:1]; αMe4Pal = C[C@](N)(Cc1ccncc1)C(=O)O; αMeY = C[C@](N)(Cc1ccc(O)cc1)C(=O)O; αMeF = C[C@](N)(Cc1ccccc1)C(=O)O; 4Pal = N[C@@H](Cc1ccncc1)C(=O)O; Aad = N[C@@H](CCCC(=O)O)C(=O)O; αMeL = CC(C)C[C@](C)(N)C(=O)O; αMeS = C[C@](N)(CO)C(=O)O; Iva = CC[C@](C)(N)C(=O)O; Orn = NCCC[C@H](N)C(=O)O; AEEA = NCCOCCOCC(=O)O; Aib = CC(C)(N)C(=O)O
How the values were obtained:
Type in all cases: cell-based
hGIPR [1] = molecular target: T1, hGIPR (Homo sapiens, UniProt P48546); test: Functional cAMP activity in the presence of 1% HSA; conditions: read-out: cAMP Rel EC50, hGIPR
T1 sequence (P48546 22-466): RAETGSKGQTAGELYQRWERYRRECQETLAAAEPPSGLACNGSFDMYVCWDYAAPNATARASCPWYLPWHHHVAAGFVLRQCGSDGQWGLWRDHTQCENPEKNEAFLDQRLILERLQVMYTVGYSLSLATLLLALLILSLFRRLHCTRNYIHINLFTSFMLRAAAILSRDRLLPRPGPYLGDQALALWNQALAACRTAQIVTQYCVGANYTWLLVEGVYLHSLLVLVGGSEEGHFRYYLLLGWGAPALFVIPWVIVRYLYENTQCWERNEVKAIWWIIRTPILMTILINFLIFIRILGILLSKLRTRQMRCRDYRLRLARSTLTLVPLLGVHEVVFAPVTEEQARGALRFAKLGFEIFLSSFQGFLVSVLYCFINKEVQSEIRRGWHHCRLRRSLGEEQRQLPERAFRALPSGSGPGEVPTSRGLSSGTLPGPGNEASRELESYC

hGLP-1R [2] = molecular target: T2, hGLP-1R (Homo sapiens, UniProt P43220); test: Functional cAMP activity in the presence of 1% HSA; conditions: read-out: cAMP Rel EC50, hGLP-1R
human GcgR = human GcgR (Homo sapiens, UniProt P47871); test: Functional cAMP activity in the presence of 1% HSA; conditions: read-out: cAMP Rel EC50, hGcgR
hGIPR [3] = molecular target: T1, hGIPR; test: Functional cAMP activation in the presence of 0.1% casein (no HSA); conditions: read-out: Relative cAMP EC50, hGIPR;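 as to Relative cAMP EC50, hGIPR: intracellular cAMP rise after 30 min at 37 °C read by HTRF against a standard curve, scaled between buffer alone (0%) and top control ligand concentration (100%), four-parameter fit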;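 as to Relative cAMP EC50, hGLP-1R: intracellular cAMP rise after 30 min at 37 °C read by HTRF, normalized between buffer only (0%) and maximal control ligand (100%), four-parameter variable-slope fit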;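 as to Relative cAMP EC50, hGcgR: intracellular cAMP rise after 30 min at 37 °C, read by HTRF against a cAMP standard curve, scaled from buffer only (0%) to maximal control ligand response (100%)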
hGLP-1R [4] = molecular target: T2, hGLP-1R; test: as above; conditions: read-out: Relative cAMP EC50, hGLP-1R
hGcgR = hGcgR (Homo sapiens, UniProt P47871); test: as above; conditions: read-out: Relative cAMP EC50, hGcgR;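 also: intracellular cAMP rise after 30 min at 37 °C, read by HTRF against a cAMP standard curve, scaled from buffer only (0%) to maximal control ligand response (100%)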
[5] = in the presence of 0.1% casein (no HSA), geometric mean

Chain of human GcgR (P47871 26-477): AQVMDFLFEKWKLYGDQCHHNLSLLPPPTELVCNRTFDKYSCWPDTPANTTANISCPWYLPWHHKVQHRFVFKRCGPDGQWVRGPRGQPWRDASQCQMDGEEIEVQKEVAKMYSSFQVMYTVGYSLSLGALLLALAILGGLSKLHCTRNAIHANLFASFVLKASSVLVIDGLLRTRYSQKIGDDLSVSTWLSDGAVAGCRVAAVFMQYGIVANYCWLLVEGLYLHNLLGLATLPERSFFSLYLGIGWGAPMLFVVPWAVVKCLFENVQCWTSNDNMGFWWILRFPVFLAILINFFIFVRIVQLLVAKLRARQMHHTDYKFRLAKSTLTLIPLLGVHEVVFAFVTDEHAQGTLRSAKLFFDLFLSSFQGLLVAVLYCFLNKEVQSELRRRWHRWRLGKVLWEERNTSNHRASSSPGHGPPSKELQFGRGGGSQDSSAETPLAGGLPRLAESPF
Chain of hGcgR (P47871 26-477): as above
T2 sequence (P43220 24-463): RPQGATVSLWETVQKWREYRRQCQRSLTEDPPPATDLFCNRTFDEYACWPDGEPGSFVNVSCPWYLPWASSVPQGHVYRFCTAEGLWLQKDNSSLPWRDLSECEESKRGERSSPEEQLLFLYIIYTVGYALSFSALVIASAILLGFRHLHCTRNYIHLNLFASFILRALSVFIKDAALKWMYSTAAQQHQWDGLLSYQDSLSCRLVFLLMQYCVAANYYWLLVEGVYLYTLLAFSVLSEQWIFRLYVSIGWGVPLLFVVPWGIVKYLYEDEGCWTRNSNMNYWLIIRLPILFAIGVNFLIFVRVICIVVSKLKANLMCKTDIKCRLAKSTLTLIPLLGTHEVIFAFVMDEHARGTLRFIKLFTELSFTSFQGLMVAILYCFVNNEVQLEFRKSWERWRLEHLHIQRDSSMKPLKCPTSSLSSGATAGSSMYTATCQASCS

Row | Substance | EC50 (hGIPR [1]) | EC50 (hGLP-1R [2]) | EC50 (human GcgR) | EC50 (hGIPR [3]; [5]) | EC50 (hGLP-1R [4]; [5]) | EC50 (hGcgR; [5]) | EC50 (hGIPR [3]) | EC50 (hGLP-1R [4]) | EC50 (hGcgR)
1 | Y[Aib]QGTFTSD[4Pal]S[Orn][αMeL]LDKK([γGlu-γGlu-C18 diacid])AQ[αMe4Pal]AFIE[αMe4Pal]LIE[Aib]GPSSGEPPPSGS-NH2 [Example 989] | 8 nM | 402 nM | 247 nM | 0.103 nM | 3.92 nM | 2.27 nM | – | – | –
2 | Y[Aib]QGTFTSD[4Pal]S[Orn][αMeL]LD[Orn]K([AEEA-γGlu-C18 diacid])AQ[Aib]AFIE[αMeY]LLEGGPSSGAPPPSGS-NH2 [Example 933] | 35.1 nM | 557 nM | 1530 nM | 0.259 nM | 2.32 nM | 5.51 nM | – | – | –
3 | Y[Aib]QGTFTSD[4Pal]S[Orn][αMeL]LD[Orn]K([γGlu-γGlu-C18 diacid])AQ[αMe4Pal]AFIEYLIAGGPSSGAPPPSGSE-NH2 [Example 1011] | 13.5 nM | 148 nM | 459 nM | 0.21 nM | 2.13 nM | 5.27 nM | – | – | –
4 | Y[Aib]QGTFTSD[4Pal]S[Orn][αMeL]LD[Orn]K([γGlu-γGlu-C18 diacid])AQ[αMe4Pal]QFIE[αMeY]LIEGGPSSGAPPPSGSEE-NH2 [Example 972] | 30.4 nM | 327 nM | 660 nM | 0.34 nM | 2.05 nM | 4.19 nM | – | – | –
5 | Y[Aib]QGTFTSD[4Pal][αMeS]Q[αMeL]LD[Orn]K([dE-γGlu-C18 diacid])AQ[Iva]QFIQ[αMeY]LLE[Aib]GPSSGAPPPSGGGE-NH2 [Example 1139] | 2.87 nM | 155 nM | 269 nM | 0.0431 nM | 1.85 nM | 5.29 nM | – | – | –
6 | Y[Aib]QGTFTSD[4Pal][αMeS]Q[αMeL]LD[Orn]K([dE-γGlu-C18 diacid])AQ[αMe4Pal]QFIQ[αMeY]LIEGGPSSGEPPPSGGGE-NH2 [Example 1188] | 7.02 nM | 77.1 nM | 130 nM | 0.0914 nM | 1.01 nM | 1.16 nM | – | – | –
7 | Y[Aib]QGT[αMeF]TSD[4Pal][αMeS]I[αMeL]LD[Orn]K([AEEA-γGlu-C18 diacid])AQ[αMe4Pal]EFI[dE][αMeY]LIEGGPSSGAPPPSGGGE-NH2 [Example 1168] | 0.999 nM | 65.4 nM | 364 nM | 0.00839 nM | 0.422 nM | 2.63 nM | – | – | –
8 | Y[Aib]QGT[αMeF]TSD[4Pal][αMeS]I[αMeL]LD[Orn]K([AEEA-γGlu-C18 diacid])AQ[αMe4Pal]EFI[dE][αMeY]LIEGGPSSGEPPPSGE-NH2 [Example 1165] | 1.36 nM | 87.7 nM | 358 nM | 0.0121 nM | 0.632 nM | 2.68 nM | – | – | –
9 | Y[Aib]QGT[αMeF]TSD[4Pal][αMeS]I[αMeL]LD[Orn]K([AEEA-γGlu-C18 diacid])AQ[αMe4Pal]EFI[dE][αMeY]LIEGGPSSGEPPPSGGGE-NH2 [Example 1169] | 1.18 nM | 80 nM | 304 nM | 0.011 nM | 0.613 nM | 2.43 nM | – | – | –
10 | Y[Aib]QGT[αMeF]TSD[4Pal][αMeS]I[αMeL]LD[Orn]K([γGlu-γGlu-C18 diacid])AQ[αMe4Pal]EFI[dE][αMeY]LIEGGPSSGAPPPSGGGE-NH2 [Example 1174] | 0.707 nM | 60.2 nM | 347 nM | 0.00896 nM | 0.454 nM | 2.58 nM | – | – | –
11 | Y[Aib]QGT[αMePhe(2-F)]TSDYSILLDAQAAK([AEEA-γGlu-C20 diacid])EFIEYLIEGGPSSGEPPPSEG-NH2 [Example 351] | 57.5 nM | 272 nM | 2470 nM | 0.243 nM | 0.679 nM | 12.1 nM | – | – | –
12 | Y[Aib]QGT[αMePhe(2-F)]TSDYSILLDKK([γGlu-γGlu-C18 diacid])AQ[Aib]AFIEYLEEGGPSSGAPPPSGE-NH2 [Example 435] | 10.3 nM | 33.6 nM | 334 nM | – | – | – | 0.0239 nM | 0.311 nM | 3.01 nM
13 | Y[Aib]QGT[αMePhe(2-F)]TSDYSILLDKQAAK([AEEA-γGlu-C20 diacid])EFIEYLIEGGPSSGAPPPSEG-NH2 [Example 340] | 60.4 nM | 246 nM | 647 nM | 0.189 nM | 0.648 nM | 2.02 nM | – | – | –
14 | Y[Aib]QGT[αMePhe(2-F)]TSDYSKILDKIAQK([AEEA-γGlu-C20 diacid])AFIQYLIEGGPSSGEPPPSEG-NH2 [Example 354] | 23.8 nM | 175 nM | 1440 nM | 0.134 nM | 1.21 nM | 7.91 nM | – | – | –
15 | Y[Aib]QGT[αMePhe(2-F)]TSDYSKLLDKIAQK([AEEA-γGlu-C20 diacid])AFIQYLIEGGPSSGEPPPSEG-NH2 [Example 338] | 10.9 nM | 172 nM | 659 nM | 0.0733 nM | 1.22 nM | 4.02 nM | – | – | –
16 | Y[Aib]QGT[αMePhe(2-F)]TSD[4Pal]SILLDKK([γGlu-γGlu-C18 diacid])AQ[Aib]AFIEWLQEGGPSSGAPPPSGTEE-NH2 [Example 578] | 3.73 nM | 54.7 nM | 781 nM | – | – | – | 0.0208 nM | 0.233 nM | 6.26 nM
17 | Y[Aib]QGT[αMePhe(2-F)]TSD[4Pal]SILLDKK([γGlu-γGlu-C18 diacid])AQ[Aib]AFIEYLQEGGPSSGAPPPSGTEE-NH2 [Example 580] | 6.29 nM | 55.3 nM | 922 nM | – | – | – | 0.0426 nM | 0.615 nM | 7.27 nM
18 | Y[Aib]QGT[αMePhe(2-F)]TSD[4Pal]SILLDKK([γGlu-γGlu-C18 diacid])AQ[Aib]AFIEYL[Aad]EGGPSSGAPPPSGTGE-NH2 [Example 661] | 4.62 nM | 50.9 nM | 160 nM | – | – | – | 0.0665 nM | 1.13 nM | 1.78 nM
19 | Y[Aib]QGT[αMePhe(2-F)]TSD[4Pal]SI[αMeL]LD[Orn]K([AEEA-AEEA-γGlu-C18 diacid])AQ[αMe4Pal]EFI[dE][αMeY]LLEGGPSSGAPPPSGE-NH2 [Example 613] | 0.791 nM | 81.6 nM | 1410 nM | – | – | – | 0.00925 nM | 0.698 nM | 20.4 nM
20 | Y[Aib]QGT[αMePhe(2-F)]TSD[4Pal]SI[αMeL]LD[Orn]K([AEEA-γGlu-C18 diacid])AQ[αMe4Pal]EFI[dE][αMeY]LIEGGPSSGAPPPSGE-NH2 [Example 614] | 0.597 nM | 33.2 nM | 724 nM | – | – | – | 0.0065 nM | 0.251 nM | 6.36 nM
21 | Y[Aib]QGT[αMePhe(2-F)]TSD[4Pal]SI[αMeL]LD[Orn]K([AEEA-γGlu-C18 diacid])AQ[αMe4Pal]EFI[dE][αMeY]LIEGGPSSGEPPPSGS-NH2 [Example 644] | 0.601 nM | 34.3 nM | 626 nM | – | – | – | 0.00649 nM | 0.309 nM | 5.91 nM
